Measured values as given in PubChem BioAssay AID212 (DTP/NCI, 2004).
Several values for one entry are separate records, joined by “and”; a condition that tells them apart may be missing. Identical values can stand only once. Inconclusive results are not listed.

Tested on: BDF1 mice, colon carcinoma 38 sc, T/C %
Test: NCI In Vivo Anticancer Drug Screen. Data for tumor model Colon Carcinoma 38 (subcutaneous) in B6D2F1 (BDF1) mice
Conditions: endpoint: median tumor weight (est.), schedule: Q07DX002 (ip), vehicle: saline with Tween-80, higher = larger tumour
In short: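 Mice with transplanted tumors are treated with compound or vehicle. Survival or tumor size is then measured in both groups. The ratio of treated to control gives the reported figure.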

**Q.** For `COC1=CC(=O)C(OC)=C(OC)C1=O`, which T/C (dose: 6.25 mg/kg/injection) is on record?
**A.** 115 % of control and 92 % of control

**Q.** And the T/C (dose: 12.5 mg/kg/injection)?
**A.** 160 % of control and 185 % of control

**Q.** What about the T/C (dose: 50.0 mg/kg/injection) of the same molecule?
**A.** 62 % of control and 65 % of control

**Q.** What about the T/C (dose: 100.0 mg/kg/injection) of the same molecule?
**A.** 152 % of control

**Q.** And the T/C (dose: 200.0 mg/kg/injection)?
**A.** 189 % of control
